Data: the NIST ThermoML archive (doi:10.1021/je800616p)
± gives the expanded uncertainty stated by the source.

Assay: mn = molality of the nth substance listed, in mol/kg
Conditions: 101 kPa, Liquid; for viscosity: Capillary tube (Ostwald / Ubbelohde) method; for mass density: Vibrating tube method

NC(=O)c1ccccc1O [2-hydroxybenzamide] + CO
viscosity (293.15 K, m1 = 0.0095): 0.597 ± 0.0071 mPa·s
viscosity (293.15 K, m1 = 0.0126): 0.5976 ± 0.0071 mPa·s
viscosity (293.15 K, m1 = 0.0158): 0.5981 ± 0.0071 mPa·s
viscosity (293.15 K, m1 = 0.019): 0.5987 ± 0.0071 mPa·s
viscosity (293.15 K, m1 = 0.0221): 0.5993 ± 0.0071 mPa·s
viscosity (293.15 K, m1 = 0.0253): 0.5997 ± 0.0071 mPa·s
viscosity (293.15 K, m1 = 0.0317): 0.6008 ± 0.0071 mPa·s
mass density (293.15 K, m1 = 0.0095): 792.015 ± 0.14 kg/m3
mass density (293.15 K, m1 = 0.0126): 792.215 ± 0.13 kg/m3
mass density (293.15 K, m1 = 0.0158): 792.352 ± 0.13 kg/m3
mass density (293.15 K, m1 = 0.019): 792.555 ± 0.13 kg/m3
mass density (293.15 K, m1 = 0.0221): 792.688 ± 0.12 kg/m3
mass density (293.15 K, m1 = 0.0253): 792.801 ± 0.12 kg/m3
mass density (293.15 K, m1 = 0.0317): 792.965 ± 0.12 kg/m3
viscosity (298.15 K, m1 = 0.0095): 0.5471 ± 0.0069 mPa·s
viscosity (298.15 K, m1 = 0.0126): 0.5475 ± 0.0069 mPa·s
viscosity (298.15 K, m1 = 0.0158): 0.548 ± 0.0069 mPa·s
viscosity (298.15 K, m1 = 0.019): 0.5485 ± 0.0069 mPa·s
viscosity (298.15 K, m1 = 0.0222): 0.549 ± 0.0069 mPa·s
viscosity (298.15 K, m1 = 0.0253): 0.5495 ± 0.0069 mPa·s
viscosity (298.15 K, m1 = 0.0317): 0.5503 ± 0.0069 mPa·s
mass density (298.15 K, m1 = 0.0095): 787.285 ± 0.14 kg/m3
mass density (298.15 K, m1 = 0.0126): 787.479 ± 0.13 kg/m3
mass density (298.15 K, m1 = 0.0158): 787.615 ± 0.13 kg/m3
mass density (298.15 K, m1 = 0.019): 787.819 ± 0.13 kg/m3
mass density (298.15 K, m1 = 0.0222): 787.921 ± 0.12 kg/m3
mass density (298.15 K, m1 = 0.0253): 788.019 ± 0.12 kg/m3
mass density (298.15 K, m1 = 0.0317): 788.218 ± 0.12 kg/m3
viscosity (303.15 K, m1 = 0.0095): 0.5003 ± 0.0068 mPa·s
viscosity (303.15 K, m1 = 0.0127): 0.5005 ± 0.0068 mPa·s
viscosity (303.15 K, m1 = 0.0159): 0.5007 ± 0.0068 mPa·s
viscosity (303.15 K, m1 = 0.0191): 0.5009 ± 0.0068 mPa·s
viscosity (303.15 K, m1 = 0.0223): 0.5012 ± 0.0068 mPa·s
viscosity (303.15 K, m1 = 0.0255): 0.5015 ± 0.0068 mPa·s
viscosity (303.15 K, m1 = 0.0319): 0.5019 ± 0.0068 mPa·s
mass density (303.15 K, m1 = 0.0095): 782.541 ± 0.14 kg/m3
mass density (303.15 K, m1 = 0.0127): 782.725 ± 0.13 kg/m3
mass density (303.15 K, m1 = 0.0159): 782.859 ± 0.13 kg/m3
mass density (303.15 K, m1 = 0.0191): 783.029 ± 0.13 kg/m3
mass density (303.15 K, m1 = 0.0223): 783.149 ± 0.13 kg/m3
mass density (303.15 K, m1 = 0.0255): 783.261 ± 0.13 kg/m3
mass density (303.15 K, m1 = 0.0319): 783.449 ± 0.12 kg/m3
viscosity (308.15 K, m1 = 0.0096): 0.4852 ± 0.0068 mPa·s
viscosity (308.15 K, m1 = 0.0128): 0.4853 ± 0.03 mPa·s
viscosity (308.15 K, m1 = 0.016): 0.4855 ± 0.03 mPa·s
viscosity (308.15 K, m1 = 0.0192): 0.4857 ± 0.03 mPa·s
viscosity (308.15 K, m1 = 0.0224): 0.4859 ± 0.03 mPa·s
viscosity (308.15 K, m1 = 0.0256): 0.4862 ± 0.03 mPa·s
viscosity (308.15 K, m1 = 0.0321): 0.4866 ± 0.03 mPa·s
mass density (308.15 K, m1 = 0.0096): 777.775 ± 0.14 kg/m3
mass density (308.15 K, m1 = 0.0128): 777.951 ± 0.13 kg/m3
mass density (308.15 K, m1 = 0.016): 778.085 ± 0.13 kg/m3
mass density (308.15 K, m1 = 0.0192): 778.255 ± 0.13 kg/m3
mass density (308.15 K, m1 = 0.0224): 778.368 ± 0.13 kg/m3
mass density (308.15 K, m1 = 0.0256): 778.495 ± 0.13 kg/m3
mass density (308.15 K, m1 = 0.0321): 778.659 ± 0.13 kg/m3
viscosity (310.15 K, m1 = 0.0097): 0.4602 ± 0.0067 mPa·s
viscosity (310.15 K, m1 = 0.0129): 0.4603 ± 0.0067 mPa·s
viscosity (310.15 K, m1 = 0.0161): 0.4604 ± 0.0067 mPa·s
viscosity (310.15 K, m1 = 0.0193): 0.4607 ± 0.0067 mPa·s
viscosity (310.15 K, m1 = 0.0218): 0.4608 ± 0.0067 mPa·s
viscosity (310.15 K, m1 = 0.0258): 0.4609 ± 0.0067 mPa·s
viscosity (310.15 K, m1 = 0.0323): 0.4612 ± 0.0067 mPa·s
mass density (310.15 K, m1 = 0.0097): 775.881 ± 0.21 kg/m3
mass density (310.15 K, m1 = 0.0129): 776.055 ± 0.13 kg/m3
mass density (310.15 K, m1 = 0.0161): 776.195 ± 0.13 kg/m3
mass density (310.15 K, m1 = 0.0193): 776.355 ± 0.14 kg/m3
mass density (310.15 K, m1 = 0.0218): 776.449 ± 0.13 kg/m3
mass density (310.15 K, m1 = 0.0258): 776.585 ± 0.12 kg/m3
mass density (310.15 K, m1 = 0.0323): 776.765 ± 0.18 kg/m3
viscosity (313.15 K, m1 = 0.0097): 0.4502 ± 0.0067 mPa·s
viscosity (313.15 K, m1 = 0.013): 0.4503 ± 0.0067 mPa·s
viscosity (313.15 K, m1 = 0.0162): 0.4504 ± 0.0067 mPa·s
viscosity (313.15 K, m1 = 0.0194): 0.4506 ± 0.0067 mPa·s
viscosity (313.15 K, m1 = 0.0227): 0.4508 ± 0.0067 mPa·s
viscosity (313.15 K, m1 = 0.0259): 0.4509 ± 0.0067 mPa·s
viscosity (313.15 K, m1 = 0.0325): 0.4511 ± 0.0067 mPa·s
mass density (313.15 K, m1 = 0.0097): 775.744 ± 5 kg/m3
mass density (313.15 K, m1 = 0.013): 775.898 ± 5 kg/m3
mass density (313.15 K, m1 = 0.0162): 776.045 ± 5 kg/m3
mass density (313.15 K, m1 = 0.0194): 776.165 ± 5 kg/m3
mass density (313.15 K, m1 = 0.0227): 776.285 ± 5 kg/m3
mass density (313.15 K, m1 = 0.0259): 776.375 ± 5 kg/m3
mass density (313.15 K, m1 = 0.0325): 776.558 ± 5 kg/m3
